This is an account of results in patent publication US7479267B2, “Cell-or organ-differentiation controllers and method of controlling morphogenesis by using the same” (Okayama Prefecture, priority 2000, dated 2009).

Like-named read-outs stand apart in the source and are kept apart here.

For assay [1], the system named is Arabidopsis thaliana late-flowering mutant fca. The format is in vivo. The procedure: (§1) Arabidopsis thaliana late-flowering mutant fca (Accession No. N167) obtained from Arabidopsis Stock Center publicly established at the University of Nottingham (U.K.) and wild type plant Ler (Accession No. NW20) were grown at 23° C. under a day length condition of 16-h light/8-h dark cycle at 100 μE/m^2 light intensity and used in the experiments. As a medium, soil consisting of 2 Vermiculite (Asahi Kogyo), 2 Kureha molding for raising seedlings (KUREHA chemical industry Co., Ltd.) and 1 Vermiculite (Asahi Kogyo), which are stacked in layer as the lower, middle and the upper layers, respectively, was used.
(§2) BSO was dissolved in water at a final concentration of 10^−1M and used as a stock solution. Then, the treatment solutions at 10^−3-10^−7M were prepared from the stock solution (FIGS. 1-3). Two to three plants were placed per a pot (about 40×50 mm) and the treatment solution was added dropwise around the shoot apex at 5 ml/day per a pot. The treatment was performed on day 0 (the initiation date of treatment), 1, 3, 5 and 7, which set of treatments was regarded as one processing.
(§3) Glutathione treatment was performed after dissolving glutathione into the BSO solution at a concentration of 10^−4 M.
(§4) The effect of treatment was estimated based on the number of rosette leaves and the elongation rate of floral stem. […] Cold treatment was performed at 4° C. concurrently with a chemical treatment.
(§5) (3) BSO treatment and glutathione (GSH) treatment was concurrently performed. BSO solution (concentration: 10^−4 M) to which glutathione was added was used in the same manner as described above.
(§6) An aqueous solution of hydrogen peroxide was prepared immediately before use. Two to three plants were placed per a pot (about 40×50 mm). On 17 days after imbibition and thereafter, the treatment solution was added dropwise around the shoot apex at 5 ml/day per a pot. The treatments were performed on day 0 (the initiation date of treatment), 1, 3, 5 and 7, which set of treatments was regarded as one processing. The time of floral transition was compared using the rosette leaf number as an index. […] The values are expressed as mean±standard error.
as §6, with “As a redox-state regulator” for “An aqueous solution”, “cells, KCN or NaN3 was used. KCN or sodium azide” for “hydrogen peroxide”, “use and used at concentrations described in FIG. 6 or 7, respectively.” for “use.”, “mm)” for “mm). On 17 days after imbibition”, “and” for “and thereafter, the”, “pot. KCN or NaN3 treatment was started 17 days after imbibition.” for “pot.”

In assay [2] the test system is Nicotina tabacum L. callus. In words: Regulation of formation of adventitious bud in callus. It is filed as cell-based. The conditions noted are these: 0.1 mM BSO, 1 mM GSH or 1 mM GSSG in adventitious formation medium; 3 weeks after induction. The procedure:
Nicotina tabacum L. leaves grown aseptically was callused in a callus-inducible medium (an essential medium consisting of 1% agar and Murashige and Skoog medium (MS medium) supplied with 0.1 mg/L benzyladenine (BA) and […] naphthaleneacetic acid (NAA)). The resultant callus was transferred to an adventitious formation medium (an essential medium consisting of 1% agar and Murashige and Skoog medium (MS medium) supplied with 1 mg/L BA and […] NAA). To the adventitious-formation medium, 0.1 mM BSO, 1 mM GSH or 1 mM GSSG (oxidized glutathione) was added as a redox-state regulator. The same medium lacking in supplements was prepared and used as a control medium.

Assay [3] has as its system Arabidopsis thaliana late-flowering mutant fca. It is filed as in vivo. The procedure: as §1, §2
The effect of treatment was estimated based on the number of rosette leaves and the elongation rate of floral stem. […]
An aqueous solution of hydrogen peroxide was prepared immediately before use. […] The values are expressed as mean±standard error.
The source holds these as a separate data set.

In assay [4] the test system is Arabidopsis thaliana wild type plant Ler. In words: Regulation of flowering time in wild type plant Ler. It is filed as in vivo. Here is the method:
as §1, §2, §3, §4, §5

The test system of assay [5] is Glycine max (cv: Tanbaguro). The settings on record: hydrogen peroxide 10^−3M; 23° C.; 1 week after imbibition; microscope. Here is the method: Soft papers were laid in plastic dishes (100×15 mm) and seeded with Glycine max (cv: Tanbaguro). To the dish was added 15 ml of an aqueous solution of hydrogen peroxide (10^−3M) for imbibition.
Assay [6] concerns Arabidopsis thaliana wild type plant Ler. The settings on record: hydrogen peroxide 10^−3M; 23° C.; 1 week after imbibition; microscope. Here is the method: Soft papers were laid in plastic dishes (100×15 mm) and seeded with Arabidopsis thaliana wild type plant Ler. To the dish was added 15 ml of an aqueous solution of hydrogen peroxide (10^−3M) for imbibition. Germination was allowed to arise at 23° C. and the root hair formation was observed 1 week after imbibition under a microscope.

For assay [7], the system named is Zinnia elegans L. (cv. Scarlet Frame). The settings on record: 60 mM hydrogen peroxide; 2 days after imbibition (FIG. 9). Here is the method:
Soft papers were laid in plastic dishes (100×15 mm) and seeded with Zinnia elegans L. (cv. Scarlet Frame) (15 seeds/dish). To the dish was added a solution of hydrogen peroxide up to 15 ml, and allowed to germinate (light condition, 50 μE/m^2, 16-h light/8-h dark cycle; temperature 27° C.). Aqueous solutions each containing hydrogen peroxide at the concentrations indicated in FIG. 9 were prepared immediately before use and applied to the seeds. Observation was performed on 2 days after imbibition (see FIG. 9). In the figure, the concentration of hydrogen peroxide (unit: mM) used in treatment is shown at the right downside of each panel.

The subject of assay [8] is Triticum aesivum L. (cv. Shirasagi). The conditions noted are these: 144 hours (6 days) after imbibition; hydrogen peroxide concentrations of FIG. 8.
Source text: Soft papers were laid in plastic dishes (100×15 mm), and seeded with Triticum aesivum L. (cv. Shirasagi) or Oryza sativa L. (cv. Nipponbare) (15 seeds/dish). […] In the figure, the values are expressed as mean±standard error.

On to `CCCCS(=N)(=O)CCC(N)C(=O)O` [BSO, L-buthionine sulfoximine], for which the flowering time entry in assay [1] (fca, BSO treatment started 12 days after imbibition (FIG. 1A)) is on record as “delayed”. Also, the “rosette leaf number compared with the water treated control group” value in assay [1] (fca, BSO treatment started 17 days after imbibition, result 1 week afterward (FIG. 1C)) is “decreased”. In addition, the Adventitious buds/callus in assay [2] was 30 or more buds/callus. For the same molecule, the “elongation rate of floral stem” value in assay [3] (fca, BSO treatment started day 17, monitored for several months (FIG. 2)) is recorded as “faster than that of control group”. Also, the bolting result in assay [4] (Ler grown in an agar medium containing BSO just after germination) was “the bolting was delayed”. The transition to flowering result in assay [4] (Ler, BSO treatment started 12 days after imbibition (FIG. 1B)) is “significantly accelerated”.

With `N[C@@H](CCC(=O)N[C@@H](CS)C(=O)NCC(=O)O)C(=O)O` [GSH, glutathione], in assay [1] (in vivo), the “transition to flowering at 1 mM GSH” value was “delay of the transition to flowering” and the “transition to flowering with increasing GSH concentration” value is “acceleration of the transition to flowering as GSH concentration increased first”. In assay [2], the Adventitious buds/callus is 2-3 buds/callus. Besides, in assay [4] (Ler, GSH given concurrently with BSO 10^−4 M, at the time when BSO accelerates flowering (FIG. 3A)), the “transition to flowering with increasing GSH concentration” value is “delay of the transition to flowering as GSH concentration increased”.

`OO` [hydrogen peroxide]: the “time of floral transition based on the rosette leaf number” value in assay [1] (in vivo) is “accelerated”. Besides, the root hair formation result in assay [5] and in assay [6] was “not in the dish treated with hydrogen peroxide solution” throughout. For the same molecule, the “elongation rate of floral stem” value in assay [3] (in vivo) is listed as “accelerated”. In addition, in assay [7], the cotyledon opening result was “occurred earlier”. The “order of emergence of cotyledons and root at germination” value in assay [7] is given as “cotyledons came out from the pericarp before root did”. In assay [8], the “cell elongation (length of coleoptile)” value is “cells were elongated”.

For oxidized glutathione [GSSG], in assay [2], the Adventitious buds/callus is 2-3 buds/callus.
